What is called EC50 is the concentration that produces a half-maximal response.

Like-named read-outs stand apart in the source and are kept apart here.

The text below walks through data of US20230083973A1, “SUBSTITUTED CYCLOPROPYL-2,2'-BIP[…], ANALOGUES THEREOF, AND METHODS USING SAME” (priority 2019, published 2023).

The assay has as its system HBsAg. Kind of assay: HBsAg assay: inhibition of HBsAg in HepG2.2.15 cells (chemiluminescence immunoassay of supernatant). The assay is classed as cell-based, hepatitis B virus. To be noted: HBsAg in supernatant at day 6 after exposure to compound, 0.5% DMSO. In a few lines: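 HepG2.2.15 cells treated with serially diluted compounds (0.5% DMSO), medium and compound refreshed after 2–3 days, supernatant harvested at day 6. Secreted HBsAg measured by chemiluminescence immunoassay; EC50 from dose-response curves, with parallel CellTiter-Glo viability at 5,000 cells/well.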

Setting [1] is: read-out: sAg EC50, HepG2.2.15 cells.
[2] abbreviates: Hepatitis B virus, HepG2.2.15, 144 h, read-out: sAg EC50, HepG2.2.15 cells.

As to `COC1CN(c2cc([C@@H]3C[C@H]3c3cnc(-c4ncccn4)nc3)cc(F)c2F)C1` (single isomer, unassigned) [Example 123, trans-5-(2-(3,4-Difluoro-5-(3-methoxyazetidin-1-yl)phenyl)cyclopropyl)-2,2′-bipyrimidine], the EC50 under setting [1] stood at 12 nM. For the compound `Fc1cc(C2CC2c2cnc(-c3ncccn3)nc2)cc(N2CCC3(COC3)C2)c1F` (single isomer, unassigned) [Example 222, trans-6-(5-(2-([2,2′-Bipyrimidin]-5-yl)cyclopropyl)-2,3-difluorophenyl)-2-oxa-6-azaspiro[3.4]octane], under setting [1], the concentration giving a half-maximal response (EC50) is 190 nM. Same read-out and setting: for `CC1(C)CN(c2cc(C3CC3c3cnc(-c4ncccn4)nc3)cc(F)c2F)C1` (single isomer, unassigned) [Example 138, trans-5-(2-(3-(3,3-Dimethylazetidin-1-yl)-4,5-difluorophenyl)cyclopropyl)-2,2′-bipyrimidine] the value was 1000 nM; for `COc1cc(C2CC2c2cnc(-c3ncccn3)nc2)c(C)cc1Cl` (single isomer, unassigned) [Example 51, trans-5-(2-(4-Chloro-5-methoxy-2-methylphenyl)cyclopropyl)-2,2′-bipyrimidine], 290 nM; for `COc1cc(C2CC2c2cnc(-c3ncccn3)nc2)cc(F)c1F` (single isomer, unassigned) [Example 84, trans-5-(2-(3,4-Difluoro-5-methoxyphenyl)cyclopropyl)-2,2′-bipyrimidine], 240 nM. On the same count and under the same terms, as for `COCCOc1cc(C2CC2c2cnc(-c3ncccn3)nc2)ccc1F` (single isomer, unassigned) [Example 22, trans-5-(2-(4-Fluoro-3-(2-methoxyethoxy)phenyl)cyclopropyl)-2,2′-bipyrimidine], the figure is 59 nM; as for `COc1cc(C2CC2c2cnc(-c3ncccn3)nc2)c(Cl)cc1Cl` (single isomer, unassigned) [Example 88, trans-5-(2-(2,4-Dichloro-5-methoxyphenyl)cyclopropyl)-2,2′-bipyrimidine], 84 nM; as for `COc1c(Cl)ccc(C2CC2c2cnc(-c3ncccn3)nc2)c1C` (single isomer, unassigned) [Example 71, trans-5-(2-(4-Chloro-3-methoxy-2-methylphenyl)cyclopropyl)-2,2′-bipyrimidine], 200 nM. Same read-out and setting: for `COc1cc(C2CC2c2cnc(-c3ncccn3)nc2N2CCCCC2)ccc1F` (single isomer, unassigned) [Example 145, trans-5-(2-(4-Fluoro-3-methoxyphenyl)cyclopropyl)-4-(piperidin-1-yl)-2,2′-bipyrimidine] the value was 700 nM. Take `COCCCOc1cc(C2CC2c2cnc(-c3ncccn3)nc2)cc(F)c1F` (single isomer, unassigned) [Example 131, trans-5-(2-(3,4-Difluoro-5-(3-methoxypropoxy)phenyl)cyclopropyl)-2,2′-bipyrimidine]: under setting [1], the EC50 was 15 nM. On to `Fc1cc([C@@H]2C[C@H]2c2cnc(-c3ncccn3)nc2)cc(-n2cccn2)c1F` (single isomer, unassigned) [Example 253, trans-5-(2-(3,4-difluoro-5-(1H-pyrazol-1-yl)phenyl)cyclopropyl)-2,2′-bipyrimidine], for which, under setting [2], the EC50 came to 29 nM. Turning to `Fc1cc(C2CC2c2cnc(-c3ncccn3)nc2)cc(F)c1F` (single isomer, unassigned) [Example 161, trans-5-(2-(3,4,5-Trifluorophenyl)cyclopropyl)-2,2′-bipyrimidine], the EC50 under setting [1] worked out at 10000 nM. The same measure, in the same setting: as for `COCCOc1cc(C2CC2c2cnc(-c3ncccn3)nc2)cc(F)c1F` (single isomer, unassigned) [Example 135, trans-5-(2-(3,4-Difluoro-5-(2-methoxyethoxy)phenyl)cyclopropyl)-2,2′-bipyrimidine], the figure is 22 nM; as for `COc1cc(F)ccc1C1CC1c1cnc(-c2ncccn2)nc1` (single isomer, unassigned) [Example 8, trans-5-(2-(4-Fluoro-2-methoxyphenyl)cyclopropyl)-2,2′-bipyrimidine], 450 nM. Still for that read-out and setting: for `COc1ccc(C2CC2c2cnc(-c3ncccn3)nc2)c(F)c1` (single isomer, unassigned) [Example 2, trans-5-(2-(2-Fluoro-4-methoxyphenyl)cyclopropyl)-2,2′-bipyrimidine] the value was 230 nM.

Consider `COc1cc(C2CC2c2cnc(-c3ncccn3)nc2-c2ccccc2)ccc1F` (single isomer, unassigned) [Example 142, trans-5-(2-(4-Fluoro-3-methoxyphenyl)cyclopropyl)-4-phenyl-2,2′-bipyrimidine], for which, under setting [1], the EC50 is 5000 nM. Regarding `c1cnc(-c2ncc([C@@H]3C[C@H]3c3cccc4ncccc34)cn2)nc1` (relative stereo) [Example 171, trans-5-(2-([2,2′-Bipyrimidin]-5-yl)cyclopropyl)quinoline], under setting [2], the EC50 amounted to 380 nM. Regarding `COc1cc(C2CC2c2cnc(-c3ncccn3)c3ccccc23)ccc1F` (single isomer, unassigned) [Example 194, trans-4-(2-(4-Fluoro-3-methoxyphenyl)cyclopropyl)-1-(pyrimidin-2-yl)isoquinoline], the EC50 under setting [1] turned out to be 49000 nM. With `COc1cc([C@@H]2C[C@H]2c2cnc(-c3ccccn3)nc2)cc(OC)c1F` (relative stereo) [Example 175, trans-5-(2-(4-Fluoro-3,5-dimethoxyphenyl)cyclopropyl)-2-(pyridin-2-yl)pyrimidine], under setting [2], the EC50 came to 350 nM.

For `CN(C)C(=O)c1cc(C2CC2c2cnc(-c3ncccn3)nc2)ccc1Cl` (single isomer, unassigned) [Example 204, trans-5-(2-([2,2′-Bipyrimidin]-5-yl)cyclopropyl)-2-chloro-N,N-dimethylbenzamide], under setting [1], the EC50 turned out to be 4000 nM.

In the case of `CO[C@@H]1CCN(c2cc(C3CC3c3cnc(-c4ncccn4)nc3)cc(Cl)c2F)C1` (single isomer, unassigned) [Example 111], under setting [1], the EC50 is 120 nM. On the same count and under the same terms, for `O[C@H]1CCN(c2cc(C3CC3c3cnc(-c4ncccn4)nc3)ccc2F)C1` (single isomer, unassigned) [Example 65] the value was 580 nM. For the compound `COc1ccc([C@H]2C[C@H]2c2cnc(-c3ncccn3)nc2)c(F)c1` (relative stereo) [Example 73, cis-5-(2-(2-Fluoro-4-methoxyphenyl)cyclopropyl)-2,2′-bipyrimidine], the EC50 under setting [2] is 9000 nM. Consider `Fc1cc(Cl)cc(C2CC2c2cnc(-c3ncccn3)nc2)c1` (single isomer, unassigned) [Example 118, trans-5-(2-(3-Chloro-5-fluorophenyl)cyclopropyl)-2,2′-bipyrimidine], for which the EC50 under setting [1] worked out at 2000 nM. The same measure, in the same setting: as for `COc1cc(C2CC2c2cnc(-c3ncccn3)nc2C2CCCCC2)ccc1F` (single isomer, unassigned) [Example 78, trans-4-Cyclohexyl-5-(2-(4-fluoro-3-methoxyphenyl)cyclopropyl)-2,2′-bipyrimidine], the figure is 11000 nM; as for `COc1c(Cl)ccc(C2CC2c2cnc(-c3ncccn3)nc2)c1Cl` (single isomer, unassigned) [Example 133, trans-5-(2-(2,4-Dichloro-3-methoxyphenyl)cyclopropyl)-2,2′-bipyrimidine], 130 nM. Take `COc1cc([C@@H]2C[C@H]2c2cnc(-c3ncccn3)nc2)ccc1C(F)(F)F` (relative stereo) [Example 153, trans-5-(2-(3-Methoxy-4-(trifluoromethyl)phenyl)cyclopropyl)-2,2′-bipyrimidine]: the half-maximal effective concentration (EC50) under setting [2] turned out to be 190 nM.

As to `Fc1ccc(C2CC2c2ccnc(-c3ncccn3)n2)cc1F` (single isomer, unassigned) [Example 6, trans-4-(2-(3,4-Difluorophenyl)cyclopropyl)-2,2′-bipyrimidine], the EC50 under setting [1] is 10000 nM.

In the case of `COc1cc(F)cc(C2CC2c2cnc(-c3ncccn3)nc2)c1` (single isomer, unassigned) [Example 112, trans-5-(2-(3-Fluoro-5-methoxyphenyl)cyclopropyl)-2,2′-bipyrimidine], the EC50 under setting [1] came out at 500 nM. Still for that read-out and setting: as for `Fc1cc(C2CC2c2cnc(-c3ncccn3)nc2)cc(OC2CCCC2)c1F` (single isomer, unassigned) [Example 245, trans-5-(2-(3-(Cyclopentyloxy)-4,5-difluorophenyl)cyclopropyl)-2,2′-bipyrimidine], the figure is 5000 nM. On the same count and under the same terms, as for `COc1cc(C2CC2c2cnc(-c3ncccn3)nc2)cc(OC)c1F` (single isomer, unassigned) [Example 146, trans-5-(2-(4-Fluoro-3,5-dimethoxyphenyl)cyclopropyl)-2,2′-bipyrimidine], the figure is 110 nM. Regarding `COc1cc(C2CC2c2cnc(-c3ncccn3)nc2)cnc1OC` (single isomer, unassigned) [Example 183, trans-5-(2-(5,6-Dimethoxypyridin-3-yl)cyclopropyl)-2,2′-bipyrimidine], the EC50 under setting [2] worked out at 910 nM.

For `Fc1ccc(C2CC2c2cnc(-c3ncccn3)nc2)cc1N1CCCCC1` (single isomer, unassigned) [Example 196, trans-5-(2-(4-Fluoro-3-(piperidin-1-yl)phenyl)cyclopropyl)-2,2′-bipyrimidine], the EC50 under setting [1] was found to be 210 nM. As to `COCCOc1cc(F)c(Cl)cc1C1CC1c1cnc(-c2ncccn2)nc1` (single isomer, unassigned) [Example 156, trans-5-(2-(5-Chloro-4-fluoro-2-(2-methoxyethoxy)phenyl)cyclopropyl)-2,2′-bipyrimidine], the EC50 under setting [1] turned out to be 190 nM. As to `Fc1cc([C@@H]2C[C@H]2c2cnc(-c3ncccn3)nc2)cc(OC2CC3(COC3)C2)c1F` (relative stereo) [Example 243, trans-5-(2-(3-((2-Oxaspiro[3.3]heptan-6-yl)oxy)-4,5-difluorophenyl)cyclopropyl)-2,2′-bipyrimidine], under setting [2], the EC50 was found to be 110 nM.
